Measurements as given in patent publication US20260256807A1, “SUBSTITUTED PYRAZOLES AND IMIDAZOLES AS OREXIN RECEPTOR ANTAGONISTS COMPOSITION, METHODS FOR TREATING NEUROLOGICAL AND PSYCHOLOGICAL DISORDERS” (HAGER BIOSCIENCES, LLC, priority 2022, published 2026).

Key:
human orexin-1 receptor = target: T1, human orexin-1 receptor (Homo sapiens, UniProt O43613); experiment: Intracellular calcium (FLIPR) antagonist assay, CHO cells expressing human orexin-1 receptor, 3 nM orexin-A; assay type: cell-based; conditions: 1 uM compound, orexin-A 3 nM; for inhibition at 1 µM: CHO, read-out: OXIR % Inh. @ 1 uM
T1 construct: expressed in transfected cells; host or cells: CHO cells (G418 selection)
T1 sequence (O43613 1-425): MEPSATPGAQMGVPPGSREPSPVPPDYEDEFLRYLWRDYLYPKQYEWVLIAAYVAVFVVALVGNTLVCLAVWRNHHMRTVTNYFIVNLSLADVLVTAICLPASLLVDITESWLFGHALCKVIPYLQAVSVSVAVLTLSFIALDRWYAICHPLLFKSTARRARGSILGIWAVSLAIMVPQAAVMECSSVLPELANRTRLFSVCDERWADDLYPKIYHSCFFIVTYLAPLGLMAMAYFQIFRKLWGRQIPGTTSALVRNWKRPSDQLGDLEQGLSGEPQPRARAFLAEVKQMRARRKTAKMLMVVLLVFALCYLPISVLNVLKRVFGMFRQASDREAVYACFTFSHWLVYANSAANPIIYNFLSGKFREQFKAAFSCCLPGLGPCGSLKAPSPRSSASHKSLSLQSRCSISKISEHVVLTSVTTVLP
Protocol: (§1) Antagonistic activities on both orexin receptors (i.e., to identify Orexin Receptor Antagonists) have been measured for each example compound using the in vitro assays (intracellular calcium measurements) as described herein. Other assays may also be used to identify Orexin Receptor Antagonists as would be understood by those of ordinary skill in the art. Chinese hamster ovary (CHO) cells expressing the human orexin-1 receptor and the human orexin-2 receptor, respectively, are grown in culture medium (Ham F-12 with L-Glutamine) containing 300 μg/mL G418, 100 U/mL penicillin, 100 μg/mL streptomycin and 10% heat inactivated fetal calf serum (FCS). The cells are seeded at 20′000 cells/well into 384-well black clear bottom sterile plates (Greiner). The seeded plates are incubated overnight at 37° C. in 5% CO2. Human orexin-A as an agonist is prepared as 1 mM stock solution in MeOH: water (1:1), diluted in HBSS containing 0.1% bovine serum albumin (BSA), NaHC03: 0.375 g/L and 20 mM HEPES for use in the assay at a final concentration of 3 nM.
(§2) Antagonists were prepared as 10 mM stock solution in DMSO, then diluted in 384-well plates using DMSO followed by a transfer of the dilutions into in HBSS containing 0.1% bovine serum albumin (BSA), NaHC03: 0.375 g/L and 20 mM HEPES. On the day of the assay, 50 μL of staining buffer (HBSS containing 1% FCS, 20 mM HEPES, NaHC03: 0.375 g/L, 5 mM probenecid (Sigma) and 3 μM of the fluorescent calcium indicator fluro-4 AM (1 mM stock solution in DMSO, containing 10% pluronic) is added to each well. The 384-well cell-plates are incubated for 50 min at 37° C. in 5% C02 followed by equilibration at RT for 30 min before measurement. Within the Fluorescent Imaging Plate Reader (FLIPR Tetra, Molecular Devices), potential Orexin Receptor Antagonists were added to the plate in a volume of 10 μl/well, incubated for 120 min and finally 10 μL/well of agonist is added. Fluorescence was measured for each well at 1 second intervals, and the height of each fluorescence peak compared to the height of the fluorescence peak induced by 3 nM orexin-A with vehicle in place of antagonist. The IC50 value (the concentration of compound needed to inhibit 50% of the agonistic response) was determined and normalized using the obtained IC50 value of an on-plate reference compound. Optimized conditions were achieved by adjustment of pipetting speed and cell splitting regime. The calculated IC50 values fluctuate depending on the daily cellular assay performance, as is known to those skilled in the art. In the case where IC50 values have been determined several times for the same compound, the geometric mean has been given.

human orexin-2 receptor = target: T2, human orexin-2 receptor (Homo sapiens, UniProt O43614); experiment: Intracellular calcium (FLIPR) antagonist assay, CHO cells expressing human orexin-2 receptor, 3 nM orexin-A; assay type: cell-based; conditions: 1 uM compound, orexin-A 3 nM; for inhibition at 1 µM: CHO, read-out: OX2R % Inh. @ 1uM
T2 construct: expressed in transfected cells; host or cells: CHO cells (G418 selection)
T2 sequence (O43614 1-444): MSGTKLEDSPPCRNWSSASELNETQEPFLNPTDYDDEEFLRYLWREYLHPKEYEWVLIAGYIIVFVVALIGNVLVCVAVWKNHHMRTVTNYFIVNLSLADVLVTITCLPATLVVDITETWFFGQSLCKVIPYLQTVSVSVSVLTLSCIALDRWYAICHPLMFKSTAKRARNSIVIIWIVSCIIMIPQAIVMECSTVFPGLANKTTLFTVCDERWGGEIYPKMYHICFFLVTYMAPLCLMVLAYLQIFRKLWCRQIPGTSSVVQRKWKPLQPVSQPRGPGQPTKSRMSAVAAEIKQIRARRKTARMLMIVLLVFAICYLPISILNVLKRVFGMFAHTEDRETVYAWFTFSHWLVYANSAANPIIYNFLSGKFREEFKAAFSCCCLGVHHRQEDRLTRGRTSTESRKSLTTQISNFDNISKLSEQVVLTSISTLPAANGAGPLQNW
Protocol: as §1, §2

| inhibition at 1 µM (human orexin-1 receptor) [%] | inhibition at 1 µM (human orexin-2 receptor) [%] | OXIR % Inh. @ 1 uM (human orexin-1 receptor) [%] | OX2R % Inh. @ 1uM (human orexin-2 receptor) [%] | SMILES |
| --- | --- | --- | --- | --- |
| 98.7 | 94.9 |  |  | O=C(c1c(-c2ccccc2)nn2ccccc12)N1CCCN(c2nc3cc(Cl)ccc3o2)CC1 [Example 1] |
| 75 | 96 |  |  | Cc1cc(C)nc(N2CC[C@@H](C)N(C(=O)c3nn4ccccc4c3-c3ccccc3)CC2)n1 [Example 71] |
| 100 | 98.7 |  |  | C[C@@H]1CCN(c2nc3cc(Cl)ccc3o2)CCN1C(=O)c1c(-c2ccccc2F)nn2ccccc12 [Example 52] |
| 100 | 64 |  |  | C[C@@H]1CCN(c2nc3cc(Cl)ccc3o2)CCN1C(=O)c1c(-c2ncccn2)nn2ccccc12 [Example 61] |
| 96.3 | 66.7 |  |  | C[C@@H]1CCN(c2ccc(C(F)(F)F)cn2)CCN1C(=O)c1c(-c2ccccc2)nn2ccccc12 [Example 17] |
| 45.1 | 38.6 |  |  | COc1ccc(N2CC[C@@H](C)N(C(=O)c3c(-c4ccccc4)nn4ccccc34)CC2)nn1 [Example 13] |
| 91.6 | 57.6 |  |  | COc1ccc(N2CC[C@@H](C)N(C(=O)c3c(-c4ccccc4)nn4ccccc34)CC2)nc1 [Example 14] |
| 54 | 57 |  |  | C[C@@H]1CCN(c2nc3cc(Cl)ccc3o2)CCN1C(=O)c1ccnn1-c1ccccc1 [Example 100] |
| 98 | 28 |  |  | C[C@@H]1CCN(c2nc3cc(Cl)ccc3o2)CCN1C(=O)c1nn2c(c1-c1ccccc1)COCC2 [Example 57] |
| 44.2 | 46 |  |  | C[C@@H]1CCN(c2ccc(F)cn2)CCN1C(=O)c1c(-c2ccccc2)nn2ccccc12 [Example 24] |
| 98 | 82.7 |  |  | C[C@@H]1CCN(c2nc3cc(Cl)ccc3o2)CCN1C(=O)c1nn2ccccc2c1-c1ccccc1 [Example 8] |
| 94 | 71.8 |  |  | O=C(c1c(-c2ccccc2)nc2ccccn12)N1CCCN(c2nc3cc(Cl)ccc3o2)CC1 [Example 3] |

The next lines start with the molecule.

| SMILES | inhibition at 1 µM (human orexin-1 receptor) [%] | inhibition at 1 µM (human orexin-2 receptor) [%] | OXIR % Inh. @ 1 uM (human orexin-1 receptor) [%] | OX2R % Inh. @ 1uM (human orexin-2 receptor) [%] |
| --- | --- | --- | --- | --- |
| Cc1cc(C)nc(N2CC3CN(C(=O)c4nc5ccccn5c4-c4ccc(F)cc4)CC3C2)n1 (centres unmarked) [Example 31] | 8.04 | 3.74 |  |  |
| Cc1cc(C)nc(N2CC3CN(C(=O)c4nc5ccccn5c4-c4ccccc4F)CC3C2)n1 (centres unmarked) [Example 32] | 4.01 | 12.1 |  |  |
| O=C(c1c(-c2ccc(F)cc2)nn2ccccc12)N1CC2CN(c3nc4cc(Cl)ccc4o3)CC2C1 (centres unmarked) [Example 48] | 87.1 | 63.2 |  |  |
| Cc1cc(C)nc(N2CC3CN(C(=O)c4c(-c5ccc(F)cc5)nc5ccccn45)CC3C2)n1 (centres unmarked) [Example 27] | 6.42 | 14.2 |  |  |
| O=C(c1c(-c2ccccc2F)nn2ccccc12)N1CC2CN(c3nc4cc(Cl)ccc4o3)CC2C1 (centres unmarked) [Example 47] | 97 | 89 |  |  |
| C[C@@H]1CCN(c2ccc(C(F)(F)F)cn2)CCN1C(=O)c1nn2cccnc2c1-c1ccccc1 [Example 68] | 100 | 68 |  |  |
| C[C@@H]1CCN(c2cnc(C(F)(F)F)cn2)CCN1C(=O)c1nn2cccnc2c1-c1ccccn1 [Example 98] | 57 | 26 |  |  |
| COc1ccc(N2CC[C@@H](C)N(C(=O)c3nn4c(c3-c3ccccc3)COCC4)CC2)nc1 [Example 76] | 23 | 11 |  |  |
| C[C@@H]1CCN(c2cnc(C(F)(F)F)cn2)CCN1C(=O)c1nn2c(c1-c1ccccc1)COCC2 [Example 82] | 39 | 2 |  |  |
| C[C@@H]1CCN(c2ccc(F)cn2)CCN1C(=O)c1c(-c2ccccc2)nc2ccccn12 [Example 23] | 18.6 | 32.7 |  |  |
| C[C@@H]1CCN(c2ccc(C(F)(F)F)cn2)CCN1C(=O)c1c(-c2ccccc2)nn2c1COCC2 [Example 18] | 82.5 | 35.5 |  |  |
| C[C@@H]1CCN(c2ccc(C(F)(F)F)cn2)CCN1C(=O)c1c(-c2ccccc2)nn2cccnc12 [Example 66] | 99 | 83 |  |  |
| C[C@@H]1CCN(c2cnc(C(F)(F)F)cn2)CCN1C(=O)c1c(-c2ncccn2)nn2ccccc12 [Example 88] | 51 | 29 |  |  |
| Cc1cc(C)nc(N2CC3CN(C(=O)c4c(-c5ccccc5)nc5ccc(F)cn45)CC3C2)n1 (centres unmarked) [Example 26] | 1.61 | 33.8 |  |  |
| COc1ccc(N2CC[C@@H](C)N(C(=O)c3c(-c4ncccn4)nn4ccccc34)CC2)nc1 [Example 92] | 25 | 13 |  |  |
| C[C@@H]1CCN(c2ccc(C(F)(F)F)cn2)CCN1C(=O)c1nn2cccnc2c1-c1ccccn1 [Example 97] | 98 | 51 |  |  |
| COc1ccc(N2CC[C@@H](C)N(C(=O)c3c(-c4ccccc4)nc4ccccn34)CC2)nn1 [Example 21] | 20.9 | 23.7 |  |  |
| COc1ccc(N2CC[C@@H](C)N(C(=O)c3nn4cccnc4c3-c3ccccc3)CC2)nc1 [Example 80] | 78 | 39 |  |  |
| C[C@@H]1CCN(c2cnc(C(F)(F)F)cn2)CCN1C(=O)c1c(-c2ccccn2)nn2ccccc12 [Example 95] |  |  | 86 | 61 |
| Cc1cc(C)nc(N2CC3CN(C(=O)c4c(-c5ccccc5)nc5cc(C(F)(F)F)ccn45)CC3C2)n1 (centres unmarked) [Example 37] | 5.33 | 46.9 |  |  |
| O=C(c1c(-c2ccccc2)nc2ccc(F)cn12)N1CC2CN(c3ccc(C(F)(F)F)cn3)CC2C1 (centres unmarked) [Example 35] | 59.1 | 22.5 |  |  |
| Cc1cc(C)nc(N2CC3CN(C(=O)c4nn5ccccc5c4-c4ccccc4F)CC3C2)n1 (centres unmarked) [Example 34] | 2.36 | 31.4 |  |  |
| Cc1cc(C)nc(N2CC3CN(C(=O)c4c(-c5ccc(F)cc5)nn5c4COCC5)CC3C2)n1 (centres unmarked) [Example 40] |  |  | 11.58 | 7.18 |
| COc1ccc(N2CC[C@@H](C)N(C(=O)c3c(-c4ccccc4)nn4c3COCC4)CC2)nn1 [Example 11] | 12.2 | 21.5 |  |  |
| Cc1cc(C)nc(N2CC3CN(C(=O)c4ccccc4-c4cnc5ccccn45)CC3C2)n1 (centres unmarked) [Example 38] | 6.86 | 3.32 |  |  |
| Cc1cc(C)nc(N2CC[C@@H](C)N(C(=O)c3nn4cccnc4c3-c3ccccc3)CC2)n1 [Example 74] | 74 | 95 |  |  |
| Cc1cc(C)nc(N2CC3CN(C(=O)c4c(-c5ccccc5)nn5c4COCC5)CC3C2)n1 (centres unmarked) [Example 41] | 6 | 11.5 |  |  |
| C[C@@H]1CCN(c2ccc(C(F)(F)F)cn2)CCN1C(=O)c1c(-c2ccccc2)nc2ccccn12 [Example 19] | 94.5 | 48.2 |  |  |
